Patent US12042511B1, “Inhalation delivery methods and compositions for vitamin B12” (priority 2017, dated 2024)

Experiments:
[1] = B12 blood levels after inhalation of methylcobalamin solution (vaporizer/electronic cigarette); type: in vivo, human
Procedure: A new method for vitamin B12 supplementation involves determining that a person has a disorder causing the person to have a reduced ability to process one or more forms of B-vitamins and convert them into a usable form in the body and administering methylcobalamin to the person in aerosol form or in water vapor, for inhalation. In some embodiments, the person is determined to have a MTHFR gene mutation. In some embodiments, the methylcobalamin is administered as part of a mixture also comprising vegetable glycerin and water. In some embodiments, the determined disorder includes anemia, pernicious anemia, and/or advanced age. In some embodiments, administering methylcobalamin involves administering at least 500 mcg of methylcobalamin in one day or in one week. For example, 500 mcg of methylcobalamin may be administered in a single daily or weekly dose. Depending on the concentration of the methylcobalamin in the solution used to administer the methylcobalamin, 500 mcg of methylcobalamin may be administered in 0.01 mL or more of solution. The concentration of methylcobalamin in solution for a vaporizer/electronic cigarette application in some embodiments is 1,000 mcg/mL or higher, in preferred embodiments 2,000 mcg/mL or higher. […]

[2] = bioavailability/absorption of methylcobalamin in inhalable form compared with other forms of B12; type: in vivo, human; details: persons with a methylenetetrahydrofolate reductase (MTHFR) genetic mutation
Procedure: When a person is determined to have MTHFR or another condition that causes the person to have a reduced ability to process B-vitamin supplements and convert them into a usable form in the body, the person may be administered methylcobalamin by inhalation for proper B12 supplementation.

SMILES: C/C1=C2/[N-][C@H]([C@H](CC(N)=O)[C@@]2(C)CCC(=O)NC[C@@H](C)OP(=O)([O-])O[C@H]2[C@@H](O)[C@@H](n3cnc4cc(C)c(C)cc43)O[C@@H]2CO)[C@]2(C)N=C(/C(C)=C3N=C(/C=C4N=C1[C@@H](CCC(N)=O)C\4(C)C)[C@@H](CCC(N)=O)[C@]\3(C)CC(N)=O)[C@@H](CCC(N)=O)[C@]2(C)CC(N)=O.[CH3-].[Co+3] [methylcobalamin]
- levels of B12 in a user's blood ([1]; lower concentrations (below 1,000 mcg/mL) of methylcobalamin in solution): no effect on the user's blood levels of B12
- levels of B12 in a user's blood ([1]; methylcobalamin concentration in solution 1,000 mcg/mL or higher, vaporizer/electronic cigarette, immediately after treatment (within about 5 minutes) and persistently): substantially increasing levels of B12 in a user's blood
- absorption relative to other forms of B12 [2]: more easily absorbed than other forms of B12
